Reference: ChEMBL document CHEMBL3994665, “Pyrano[2,3,4-cd]indole as a Scaffold for Selective Nonbasic 5-HT6R Ligands” (ACS Med Chem Lett, 2017)

Tests used:
[1] = target: T1, 5-hydroxytryptamine receptor 6 (Homo sapiens, UniProt P50406); experiment: Displacement of [3H]-LSD from 5-HT6 receptor (unknown origin)
[2] = target: T2, 5-hydroxytryptamine receptor 1A (Homo sapiens, UniProt P08908); experiment: Displacement of [3H]-8-OH-DPAT from 5HT1A receptor (unknown origin)
T2 sequence (P08908 whole entry): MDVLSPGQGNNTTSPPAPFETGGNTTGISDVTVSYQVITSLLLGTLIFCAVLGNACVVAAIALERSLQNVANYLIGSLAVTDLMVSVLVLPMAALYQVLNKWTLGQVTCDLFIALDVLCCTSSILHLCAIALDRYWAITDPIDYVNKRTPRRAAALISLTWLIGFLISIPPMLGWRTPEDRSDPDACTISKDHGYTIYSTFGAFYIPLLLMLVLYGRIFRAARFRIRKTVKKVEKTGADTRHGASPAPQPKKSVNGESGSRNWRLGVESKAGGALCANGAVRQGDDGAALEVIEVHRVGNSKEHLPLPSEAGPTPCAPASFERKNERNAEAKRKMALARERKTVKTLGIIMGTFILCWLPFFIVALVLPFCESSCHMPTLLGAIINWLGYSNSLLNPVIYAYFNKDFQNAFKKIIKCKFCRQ

[3] = target: 5-hydroxytryptamine receptor 2A (Homo sapiens, UniProt P28223); experiment: Binding affinity to 5HT2A receptor (unknown origin)
Sequence of 5-hydroxytryptamine receptor 2A (P28223 whole entry): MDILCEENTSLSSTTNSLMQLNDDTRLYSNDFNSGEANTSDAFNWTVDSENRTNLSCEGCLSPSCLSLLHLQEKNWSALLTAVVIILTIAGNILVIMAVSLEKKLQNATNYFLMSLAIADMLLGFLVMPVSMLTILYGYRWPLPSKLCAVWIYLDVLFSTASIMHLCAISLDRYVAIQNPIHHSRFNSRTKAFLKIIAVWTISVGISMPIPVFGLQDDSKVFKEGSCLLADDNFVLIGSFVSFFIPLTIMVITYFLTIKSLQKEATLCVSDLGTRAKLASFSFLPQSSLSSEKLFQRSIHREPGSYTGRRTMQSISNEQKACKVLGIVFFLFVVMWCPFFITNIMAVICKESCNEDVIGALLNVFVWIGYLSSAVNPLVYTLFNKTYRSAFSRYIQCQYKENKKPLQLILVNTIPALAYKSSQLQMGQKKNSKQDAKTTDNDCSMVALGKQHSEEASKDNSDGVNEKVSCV

[4] = target: 5-hydroxytryptamine receptor 7 (Homo sapiens, UniProt P34969); experiment: Displacement of [3H]-5-CT from 5-HT7b receptor (unknown origin)
Sequence of 5-hydroxytryptamine receptor 7 (P34969 whole entry): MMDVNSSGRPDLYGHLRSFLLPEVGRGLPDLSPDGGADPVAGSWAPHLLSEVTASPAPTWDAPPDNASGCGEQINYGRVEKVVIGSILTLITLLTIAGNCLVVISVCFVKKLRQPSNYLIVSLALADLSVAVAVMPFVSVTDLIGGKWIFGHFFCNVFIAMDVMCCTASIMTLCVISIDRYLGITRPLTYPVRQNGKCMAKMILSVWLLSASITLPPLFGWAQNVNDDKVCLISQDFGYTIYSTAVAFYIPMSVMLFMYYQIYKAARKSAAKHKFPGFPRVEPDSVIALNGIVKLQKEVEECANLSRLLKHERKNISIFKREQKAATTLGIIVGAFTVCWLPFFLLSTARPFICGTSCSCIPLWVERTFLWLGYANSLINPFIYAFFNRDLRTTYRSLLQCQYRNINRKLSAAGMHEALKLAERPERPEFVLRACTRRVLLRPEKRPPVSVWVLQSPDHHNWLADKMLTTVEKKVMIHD

[5] = target: D(2) dopamine receptor (Homo sapiens, UniProt P14416); experiment: Displacement of [3H]-Raclopride from D2L receptor (unknown origin)
Sequence of D(2) dopamine receptor (P14416 whole entry): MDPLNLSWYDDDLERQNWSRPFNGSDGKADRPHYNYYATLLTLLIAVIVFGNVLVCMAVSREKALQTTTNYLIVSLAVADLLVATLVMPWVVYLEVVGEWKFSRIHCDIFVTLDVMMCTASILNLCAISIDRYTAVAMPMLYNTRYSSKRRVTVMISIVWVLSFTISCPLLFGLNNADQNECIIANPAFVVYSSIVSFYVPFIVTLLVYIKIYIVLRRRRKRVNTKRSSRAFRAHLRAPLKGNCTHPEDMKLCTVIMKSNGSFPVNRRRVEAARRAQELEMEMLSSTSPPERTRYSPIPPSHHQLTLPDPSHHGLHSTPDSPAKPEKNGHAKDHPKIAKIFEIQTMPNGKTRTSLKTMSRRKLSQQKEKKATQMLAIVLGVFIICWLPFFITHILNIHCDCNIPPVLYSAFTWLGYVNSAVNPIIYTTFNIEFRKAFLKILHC

[6] = target: T1, 5-hydroxytryptamine receptor 6; experiment: Antagonist activity at 5-HT6 receptor (unknown origin) expressed in HEK293 cells assessed as inhibition of 5-CT induced cAMP production after 30 mins by TR-FRET assay; type: functional, cell-based

T1 sequence (P50406 whole entry): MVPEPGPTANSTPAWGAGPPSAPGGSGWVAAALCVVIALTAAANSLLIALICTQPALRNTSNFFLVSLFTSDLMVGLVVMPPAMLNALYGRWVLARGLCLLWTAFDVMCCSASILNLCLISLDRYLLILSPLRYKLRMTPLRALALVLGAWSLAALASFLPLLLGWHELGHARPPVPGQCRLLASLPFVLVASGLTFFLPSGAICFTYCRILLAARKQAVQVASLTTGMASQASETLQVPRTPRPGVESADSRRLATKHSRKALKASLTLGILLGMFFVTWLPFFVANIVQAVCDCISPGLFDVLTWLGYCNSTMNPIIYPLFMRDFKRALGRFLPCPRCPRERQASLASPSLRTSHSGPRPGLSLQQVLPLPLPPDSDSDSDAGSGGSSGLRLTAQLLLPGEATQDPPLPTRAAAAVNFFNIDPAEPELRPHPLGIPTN

Row | SMILES | Ki [1] | Ki [2] | Ki [4] | Ki [5] | Ki [3] | Kb [6]
1 | CC1=C(CO)Oc2cccc3c2c1cn3S(=O)(=O)c1ccccc1 | 0.052 µM | > 10 µM | > 10 µM | > 10 µM | > 10 µM | 
2 | O=S(=O)(c1cccc2ccccc12)n1cc2c3c(cccc31)OC(CO)=C2 | 0.004 µM |  | > 10 µM | 4.29 µM | > 10 µM | 
3 | CC1=C(CO)Oc2cccc3c2c1cn3S(=O)(=O)c1cccc2ccccc12 | 0.02 µM | > 10 µM | > 10 µM | > 10 µM | > 10 µM | 
4 | O=S(=O)(c1ccccc1)n1cc2c3c(cccc31)OC(CO)=C2 | 0.036 µM | > 10 µM | > 10 µM | > 10 µM | > 10 µM | 0.016 µM

The next lines start with results.

Row | Ki [1] | Ki [2] | Ki [4] | Ki [5] | SMILES | Ki [3] | Kb [6]
5 | 0.001 µM | 5.97 µM | 0.438 µM | 1.49 µM | CN(C)CC1=Cc2cn(S(=O)(=O)c3cccc4ccccc34)c3cccc(c23)O1 | 0.489 µM | 
6 | 0.028 µM | > 10 µM | > 10 µM | 4.35 µM | CCN(CC)CC1=Cc2cn(S(=O)(=O)c3ccccc3)c3cccc(c23)O1 | 1.7 µM | 
7 | 0.755 µM | > 10 µM | > 10 µM | > 10 µM | N#CC1=Cc2cn(S(=O)(=O)c3cccc4ccccc34)c3cccc(c23)O1 |  | 
8 | 0.266 µM | > 10 µM | > 10 µM | 5.16 µM | O=CC1=Cc2cn(S(=O)(=O)c3cccc4ccccc34)c3cccc(c23)O1 |  | 
9 | 0.005 µM | > 10 µM | 3.69 µM | 6.7 µM | CN(C)CC1=Cc2cn(S(=O)(=O)c3ccccc3)c3cccc(c23)O1 | 0.065 µM | 
